Measurements as given in patent US5104800A, “One-step cephalosporin C amidase enzyme” (Merck & Co., Inc., priority 1989, dated 1992).

Key:
[1] = tested on: cephalosporin C amidase from Bacillus megaterium (alpha(2) beta(2) oligomer, 722 amino acid primary translation product); assay: Inhibitors of purified cephalosporin C amidase; format: biochemical; details: for inhibition at 10 mM (potent inhibitors): inhibitor at 10 mM; for inhibition of the enzyme (in words): concentration not given
From the text: (§1) The amino acid sequence of the cephalosporin C amidase enzyme of the present invention, recited further above, was deduced by DNA sequence analysis of the gene coding for the enzyme, and the accuracy of the results have been verified by sequencing three independent isolates from three different strains of Bacillus megaterium. However, since 100% accuracy cannot be totally assured, it has been considered desirable to also identify the cephalosporin C amidase enzyme of the present invention in terms of a number of physical and chemical attributes which it uniquely has. Purification of the enzyme for which such data has been derived is explained in more detail further below. Those data are set out in the following table:
(§2) Assay of activity: incubate 180 μl enzyme with 20 μl 20 mg/ml cephalosporin C; after 3 hours at 37° determine 7-ACA by HPLC assay
(§3) Cultures of B. megaterium were grown as described. The cells were removed from the broth by centrifugation. The broth was brought to 55% saturation with respect to ammonium sulfate and the precipitate removed by centrifugation. The supernatant was then brought to 75% saturated with respect to ammonium sulfate and the cephalosporin C amidase containing precipitate pelleted by centrifugation. This pellet was resuspended in 1/10 of the original culture volume of 15% (w/v) ammonium sulfate, 50 mM sodium phosphate, 5% (w/v) glycerol pH 7.5.
The 10× concentrated enzyme was brought from 15% to 18% w/v ammonium sulfate by addition of saturated ammonium sulfate and filtered through a 0.4 micron filter. Four mls of this was injected onto a Synchrome Synchropak propyl column (25 cm×[…]) which was previously equilibrated with 18% (w/v) ammonium sulfate, 50 mM potassium phosphate pH 7.0. The flow rate was 1 ml/min. For ten minutes after injection the mobile phase composition remained unchanged. From 10 to 40 minutes the mobile phase was changed in a linear gradient to 0% ammonium sulfate, 50 mM sodium phosphate pH 7. From 40-50 minutes the mobile phase composition remained unchanged. Two fractions/min. were collected and assayed for cephalosporin C amidase activity. The activity eluted from 22 to 25 minutes.
The five fractions with the most activity were pooled and concentrated by ultrafiltration in a Centricon 30 (Amicon) to about 50 μl. This concentrated enzyme was injected onto a Zorbox GF 250 (DuPont) column ([…]). The column had been equilibrated and was run in 10% (w/v) ammonium sulfate, 50 mM potassium phosphate pH 7.0 at 1 ml/min. Five fractions/min. were collected. All of the cephalosporin C amidase activity was recovered in two fractions at approximately 9 minutes after injection.
1. The substrate stock solution was prepared by dissolving 20 mg of cephalosporin C in 1 ml of water.
2. Cephalosporin C stock solution (20 μl) was added to the recovered enzyme (180 μl) and the mixture was incubated at 37° C. for 3 hours. Formation of 7-ACA was monitored by HPLC.

[2] = tested on: cephalosporin C amidase from Bacillus megaterium (alpha(2) beta(2) oligomer, 722 amino acid primary translation product); assay: Kinetic characterisation of purified cephalosporin C amidase (Km, turnover); format: biochemical
From the text: as §1, §2
as §3, with “This pellet was resuspended in 1/10 of the original culture volume of 15% (w/v) ammonium sulfate, 50 mM sodium phosphate, 5% (w/v) glycerol pH 7.5.” left out
2. […] Formation of 7-ACA was monitored by HPLC.

| Structure (SMILES) | inhibition at 10 mM (potent inhibitors) [1] | further results |
| --- | --- | --- |
| C[C@@H](N)C(=O)O [D-alanine] | > 90% | – |
| O=C(O)CCCC(=O)Nc1ccc(C(=O)O)cc1 [glutaryl-4-aminobenzoate, reference compound] | – | turnover number, fold higher than with cephalosporin C ([2]; substrate glutaryl-4-aminobenzoate (GAB) compared with cephalosporin C): 20 fold |
| NCC(=O)O [Glycine] | > 90% | – |
| CC1(C)S[C@@H]2[C@H](NC(=O)Cc3ccccc3)C(=O)N2[C@H]1C(=O)O [PenG, penicillin G, reference compound] | – | inhibition of the enzyme (in words) [1]: NOT inhibited |
| C[C@H](N)C(=O)O [L-alanine] | > 90% | – |
| NC(=O)CC[C@H](N)C(=O)O [Glutamine] | > 90% | – |
| CC1(C)S[C@@H]2[C@H](N)C(=O)N2[C@H]1C(=O)O [6-APA] | – | inhibition of the enzyme (in words) [1]: NOT inhibited |
| CC(=O)OCC1=C(C(=O)O)N2C(=O)[C@@H](NC(=O)CCC[C@@H](N)C(=O)O)[C@H]2SC1 [cephalosporin C] | – | Km ([2]; substrate cephalosporin C): 1300 µM |
